Here are results for 8 molecules from ChEMBL document CHEMBL4049381 (Medchemcomm, 2016).

For data set [1], the target named is T1, Solute carrier organic anion transporter family member 2B1 (Homo sapiens, UniProt O94956).
T1 sequence (O94956 whole entry): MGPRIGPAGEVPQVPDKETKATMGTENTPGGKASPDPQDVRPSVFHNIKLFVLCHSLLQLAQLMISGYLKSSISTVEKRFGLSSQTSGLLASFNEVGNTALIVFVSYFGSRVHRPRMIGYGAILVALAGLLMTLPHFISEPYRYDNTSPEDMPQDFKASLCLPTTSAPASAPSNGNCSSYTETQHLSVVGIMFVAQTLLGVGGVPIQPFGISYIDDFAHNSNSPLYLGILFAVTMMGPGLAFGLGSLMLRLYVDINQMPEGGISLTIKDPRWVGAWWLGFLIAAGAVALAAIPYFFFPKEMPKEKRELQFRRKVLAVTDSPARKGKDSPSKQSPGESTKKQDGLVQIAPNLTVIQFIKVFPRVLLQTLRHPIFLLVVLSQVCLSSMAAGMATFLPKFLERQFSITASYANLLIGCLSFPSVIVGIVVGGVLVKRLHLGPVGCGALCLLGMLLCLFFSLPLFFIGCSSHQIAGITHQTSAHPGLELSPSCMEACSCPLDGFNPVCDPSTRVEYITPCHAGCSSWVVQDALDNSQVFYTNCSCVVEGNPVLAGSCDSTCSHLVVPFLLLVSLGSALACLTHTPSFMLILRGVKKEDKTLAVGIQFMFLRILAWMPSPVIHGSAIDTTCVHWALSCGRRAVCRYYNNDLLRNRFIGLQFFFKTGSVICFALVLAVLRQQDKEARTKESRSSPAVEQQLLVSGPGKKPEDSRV
The data set is described as follows: Drug uptake assessed as human OATP2B1 expressed in Xenopus laevis oocyte mediated drug accumulation per 30 mins per oocyte at 0.003 uM by LC-MS/MS method. It is filed as ADME. The following applies: 0.5 h.

Data set [2] concerns the target T2, Solute carrier organic anion transporter family member 2B1 (Homo sapiens, UniProt O94956, H579Q). The data set can be described thus: Drug uptake assessed as human OATP2B1 H579Q mutant expressed in Xenopus laevis oocyte mediated drug accumulation at 0.003 uM after 30 mins by LC-MS/MS method relative to wild type protein. The following applies: 0.5 h. It is filed as ADME.

Data set [3] deals with T3, Solute carrier organic anion transporter family member 2B1 (Homo sapiens, UniProt O94956, H618Q). The data set can be described thus: Drug uptake assessed as human OATP2B1 H618Q mutant expressed in Xenopus laevis oocyte mediated drug accumulation at 0.003 uM after 30 mins by LC-MS/MS method relative to wild type protein. The following applies: 0.5 h. It is filed as ADME.
T3 sequence (O94956 whole entry T392I/H618Q): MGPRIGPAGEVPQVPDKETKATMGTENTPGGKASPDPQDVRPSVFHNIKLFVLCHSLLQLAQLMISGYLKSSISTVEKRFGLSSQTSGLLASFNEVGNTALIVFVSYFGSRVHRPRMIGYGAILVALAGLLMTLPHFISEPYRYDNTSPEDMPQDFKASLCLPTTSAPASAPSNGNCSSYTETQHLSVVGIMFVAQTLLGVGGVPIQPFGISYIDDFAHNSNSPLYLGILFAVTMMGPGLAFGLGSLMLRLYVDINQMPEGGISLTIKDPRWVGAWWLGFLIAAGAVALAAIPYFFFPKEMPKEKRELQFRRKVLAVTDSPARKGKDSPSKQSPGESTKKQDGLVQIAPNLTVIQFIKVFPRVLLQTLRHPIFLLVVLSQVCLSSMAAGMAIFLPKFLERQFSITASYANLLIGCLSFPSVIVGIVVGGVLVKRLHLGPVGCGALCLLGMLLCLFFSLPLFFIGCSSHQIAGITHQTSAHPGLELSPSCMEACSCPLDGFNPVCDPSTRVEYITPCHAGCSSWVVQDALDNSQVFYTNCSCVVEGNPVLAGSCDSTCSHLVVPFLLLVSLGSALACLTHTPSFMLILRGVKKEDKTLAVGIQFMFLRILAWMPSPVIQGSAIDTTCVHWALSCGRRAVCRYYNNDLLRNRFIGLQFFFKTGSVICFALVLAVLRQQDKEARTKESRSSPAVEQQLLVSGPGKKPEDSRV

The target in data set [4] is T4, Solute carrier organic anion transporter family member 2B1 (Homo sapiens, UniProt O94956, R607A). The data set is described as follows: Drug uptake assessed as human OATP2B1 R607A mutant expressed in Xenopus laevis oocyte mediated drug accumulation at 0.003 uM after 30 mins by LC-MS/MS method relative to wild type protein. It is filed as ADME. The following applies: 0.5 h.
T4 sequence (O94956 whole entry T392I/R607A): as the sequence (O94956 whole entry T392I/H618Q) above, with R607A, Q618H counted along it

In data set [5] the target is T1, Solute carrier organic anion transporter family member 2B1. The data set can be described thus: Drug uptake assessed as human OATP2B1 expressed in Xenopus laevis oocyte mediated drug accumulation per 120 mins per oocyte at 1 uM by LC-MS/MS method. It is filed as ADME. The following applies: 2 h.
In data set [6] the target is T3, Solute carrier organic anion transporter family member 2B1. The data set is described as follows: Drug uptake assessed as human OATP2B1 H618Q mutant expressed in Xenopus laevis oocytes mediated drug accumulation at 1 uM after 120 mins by LC-MS/MS method relative to wild type protein. It is filed as ADME, cell-based. The following applies: 2 h.
Data set [7] has as its target T2, Solute carrier organic anion transporter family member 2B1. The data set can be described thus: Drug uptake assessed as human OATP2B1 H579Q mutant expressed in Xenopus laevis oocyte mediated drug accumulation at 1 uM after 120 mins by LC-MS/MS method relative to wild type protein. The following applies: 2 h. It is filed as ADME.
Data set [8] concerns the target T4, Solute carrier organic anion transporter family member 2B1. The data set can be described thus: Drug uptake assessed as human OATP2B1 R607A mutant expressed in Xenopus laevis oocyte mediated drug accumulation at 1 uM after 120 mins by LC-MS/MS method relative to wild type protein. It is filed as ADME. The following applies: 2 h.
The test system of data set [9] is C[C@]12CC[C@@H]3c4ccc(OS(=O)(=O)O)cc4CC[C@H]3[C@@H]1CCC2=O. The data set is described as follows: Substrate activity at human OATP2B1 H618Q mutant low affinity site expressed in Xenopus laevis oocytes assessed as Km for transporter-mediated drug accumulation after 15 mins by Eadie-Hofstee plot method. It is filed as ADME, cell-based.
Data set [10] shares this test system. The data set is described as follows: Substrate activity at human OATP2B1 H618Q mutant high affinity site expressed in Xenopus laevis oocytes assessed as Km for transporter-mediated drug accumulation after 15 mins by Eadie-Hofstee plot method. It is filed as ADME, cell-based.
Data set [11] addresses T3, Solute carrier organic anion transporter family member 2B1. The data set is described as follows: Drug uptake assessed as human OATP2B1 H618Q mutant expressed in Xenopus laevis oocyte mediated drug accumulation at 1 uM after 180 mins by LC-MS/MS method relative to wild type protein. It is filed as ADME. The following applies: 3 h.
Data set [12] concerns the target T2, Solute carrier organic anion transporter family member 2B1. The data set is described as follows: Drug uptake assessed as human OATP2B1 H579Q mutant expressed in Xenopus laevis oocyte mediated drug accumulation at 1 uM after 180 mins by LC-MS/MS method relative to wild type protein. The following applies: 3 h. It is filed as ADME.
For data set [13], the target named is T4, Solute carrier organic anion transporter family member 2B1. The data set is described as follows: Drug uptake assessed as human OATP2B1 R607A mutant expressed in Xenopus laevis oocyte mediated drug accumulation at 1 uM after 180 mins by LC-MS/MS method relative to wild type protein. It is filed as ADME. The following applies: 3 h.
Data set [14] has as its target T1, Solute carrier organic anion transporter family member 2B1. The data set is described as follows: Drug uptake assessed as human OATP2B1 expressed in Xenopus laevis oocyte mediated drug accumulation per 180 mins per oocyte at 1 uM by LC-MS/MS method. It is filed as ADME. The following applies: 3 h.
The test system of data set [15] is C[C@]12CC[C@@H]3c4ccc(OS(=O)(=O)O)cc4CC[C@H]3[C@@H]1CCC2=O. The data set can be described thus: Substrate activity at human OATP2B1 H579Q mutant high affinity site expressed in Xenopus laevis oocytes assessed as Km for transporter-mediated drug accumulation after 15 mins by Eadie-Hofstee plot method. It is filed as ADME, cell-based.
Substrate in data set [16]: C[C@]12CC[C@@H]3c4ccc(OS(=O)(=O)O)cc4CC[C@H]3[C@@H]1CCC2=O
The data set is described as follows: Substrate activity at human OATP2B1 high affinity site expressed in Xenopus laevis oocytes assessed as Km for transporter-mediated drug accumulation after 15 mins by Eadie-Hofstee plot method. It is filed as ADME, cell-based.

Substrate in data set [17]: C[C@]12CC[C@@H]3c4ccc(OS(=O)(=O)O)cc4CC[C@H]3[C@@H]1CCC2=O
The data set is described as follows: (§1) Drug uptake assessed as OATP2B1 high affinity site (unknown origin)-mediated drug uptake. It is filed as ADME, Homo sapiens.

Substrate in data set [18]: O=C(O)c1cc(/N=N/c2ccc(S(=O)(=O)Nc3ccccn3)cc2)ccc1O
Described as §1. It is filed as ADME, Homo sapiens.

Substrate in data set [19]: CC[C@H](C)C(=O)O[C@H]1C[C@H](O)C=C2C=C[C@H](C)[C@H](CC[C@@H](O)C[C@@H](O)CC(=O)O)[C@H]21
Described as §1. It is filed as ADME, Homo sapiens.

Substrate in data set [20]: C[C@]12CC[C@@H]3c4ccc(OS(=O)(=O)O)cc4CC[C@H]3[C@@H]1CCC2=O
The data set is described as follows: Substrate activity at human OATP2B1 low affinity site expressed in Xenopus laevis oocytes assessed as Km for transporter-mediated drug accumulation after 15 mins by Eadie-Hofstee plot method. It is filed as ADME, cell-based.

Substrate in data set [21]: C[C@]12CC[C@@H]3c4ccc(OS(=O)(=O)O)cc4CC[C@H]3[C@@H]1CCC2=O
The data set is described as follows: (§2) Drug uptake assessed as OATP2B1 low affinity site (unknown origin)-mediated drug uptake. It is filed as ADME, Homo sapiens.

Substrate in data set [22]: CC[C@H](C)C(=O)O[C@H]1C[C@H](O)C=C2C=C[C@H](C)[C@H](CC[C@@H](O)C[C@@H](O)CC(=O)O)[C@H]21
The description is as §2. It is filed as ADME, Homo sapiens.

T2 sequence (O94956 whole entry T392I/H579Q): as the sequence (O94956 whole entry T392I/H618Q) above, with H579Q, Q618H counted along it

`CCCCC[C@H](O)/C=C/[C@H]1[C@H](O)CC(=O)[C@@H]1C/C=C\CCCC(=O)O` [DINOPROSTONE]: the Drug uptake in data set [1] was determined as 0.461 µL; in data set [2] it was 138%; in [3], 97.4%; in [4], 45.3%.

As for `CC(C)c1nc(N(C)S(C)(=O)=O)nc(-c2ccc(F)cc2)c1/C=C/[C@@H](O)C[C@@H](O)CC(=O)O` [ROSUVASTATIN], the Drug uptake in data set [5] was found to be 2.951 µL; in data set [6], 33.1%; in [7], 39.8%; in [8] it was 5.79%.

As for `CC(C)(C(=O)O)c1ccc(C(O)CCCN2CCC(C(O)(c3ccccc3)c3ccccc3)CC2)cc1` (stereo not given) [FEXOFENADINE], the Drug uptake in data set [5] stood at 0.056 µL; in data set [6], 121%; in data set [7], 147%; in data set [8], 28.5%.

In the case of “Solute carrier organic anion transporter family member 2B1 (Homo sapiens; H618Q)”, the Km (usually the concentration of substrate that gives half-maximal velocity) in data set [9] was determined as 91.1 µM; in data set [10] it was 0.149 µM.

Regarding `CC[C@H](C)C(=O)O[C@H]1C[C@H](O)C=C2C=C[C@H](C)[C@H](CC[C@@H](O)C[C@@H](O)CC(=O)O)[C@H]21` [PRAVASTATIN], the Drug uptake worked out at 40% in data set [11], 32.5% in [12], 0.2% in data set [13] and 0.196 µL in data set [14].

As to `O=C(O)c1cc(/N=N/c2ccc(S(=O)(=O)Nc3ccccn3)cc2)ccc1O` [SULFASALAZINE], the Drug uptake was 1.934 µL in [5], 22.2% in data set [6], 41% in data set [7] and 7.57% in data set [8].

Consider “Solute carrier organic anion transporter family member 2B1 (Homo sapiens; H579Q)”, for which, in data set [15], the Km turned out to be 0.18 µM.

B1: Solute carrier organic anion transporter family member 2B1 (Homo sapiens) (protein)
chain: T1 sequence (O94956 whole entry)
As to B1, the Km turned out to be 0.463 µM in data set [16]; 0.1 µM in data set [17]; 1.73 µM in [18]; 6.25 µM in [19]; 51.4 µM in [20]; 29.9 µM in [21]. Moreover, the Km in [22] came to 225 µM.
